Measured values as given in PMC8998355, “Diversity-Oriented Synthesis Catalyzed by Diethylaminosulfur-Trifluoride—Preparation of New Antitumor Ecdysteroid Derivatives” (International Journal of Molecular Sciences, 2022).

Experiments:
[1] = system: L5178Y mouse T-cell lymphoma cells; assay: MTT cytotoxicity assay (24 h, 1 × 10^4 cells); type: cell-based; conditions: 24 h MTT, n = 3, read-out: Cytotoxicity (IC50 ± SD)
Description: (§1) To assess the compounds’ effect on cell growth and viability, we used two different experimental setups of MTT assay. This allowed a comparative evaluation of results obtained from a short-term (24 h) treatment of a relatively higher number (10,000) of cells and those from a long-term (72 h) treatment of a lower cell number (6000), which makes it possible to gain some insight into the cytotoxic vs. cytostatic properties of the compounds. Even though MTT assay is an endpoint detection method, i.e., it provides a single readout of viable cells at the end of the experiment, such a comparison offers a reliable tool to identify antiproliferative activity of compounds that are not cytotoxic.
(§2) L5178Y mouse T-cell lymphoma cells (ECACC Cat. No. 87111908) were obtained from FDA, Silver Spring, MD, USA. These were transfected with pHa MDR1/A retrovirus as described previously. ABCB1-expressing L5178YMDR cells were selected by culturing the infected cells with colchicine. The cell lines were cultured in McCoy’s 5A medium supplemented with 10% heat inactivated horse serum, 2 mM L-glutamine, and penicillin–streptomycin mixture.
(§3) MTT assay was performed in 96-well flat-bottomed microtiter plates as described before. Briefly, a 10 mM concentration stock solution in DMSO was prepared for each compound. These were diluted in 100 μL of McCoy’s 5A medium. Subsequently, 1 × 10^4 (cytotoxicity assay) or 6 × 10^3 (antiproliferative assay) T-cell mouse lymphoma cells in 100 μL of medium were added to each well, except for the medium control wells.
(§4) The culture plates were further incubated at 37 °C for 24 h (cytotoxicity assay) or 72 h (antiproliferative assay); at the end of the incubation period, 20 μL of MTT solution (from a 5 mg/mL stock) was added to each well. After incubation at 37 °C for 4 h, 100 μL of SDS solution (10% in 0.01 M HCI) was added to each well and the plates were further incubated at 37 °C overnight. The cell growth was determined by measuring the optical density at 540 nm (ref. 630 nm) with a Multiscan EX ELISA reader (Thermo Labsystems, Cheshire, WA, USA). IC50 values were calculated by variable slope nonlinear regression using the log(inhibitor) vs. normalized response of GraphPad Prism 5.01 (GraphPad Software Inc., San Diego, CA, USA).

[2] = system: L5178YMDR cells (ABCB1-expressing); assay: MTT cytotoxicity assay (24 h, 1 × 10^4 cells); type: cell-based; conditions: Mus musculus, 24 h MTT, n = 3, read-out: Cytotoxicity (IC50 ± SD)
Description: as §1, §2, §3, §4

[3] = MTT cytotoxicity assay (24 h); type: cell-based; conditions: human, MRC-5 human embryonal lung fibroblasts; MRC-5, 24 h MTT, n = 3; read-out: Cytotoxicity (IC50 ± SD)
Description: as §1
(§5) MRC-5 human embryonal lung fibroblasts (CCL-171, ATCC) were acquired from Sigma-Aldrich (Merck, KGaA, Darmstadt, Germany), and were cultured in EMEM medium containing 4.5 g/L glucose and supplemented with a non-essential amino acid mixture, a selection of vitamins, and 10% of FBS.
(§6) The adherent human fibroblast cells were seeded in 100 μL of EMEM medium overnight before each assay. Two-fold serial dilutions of the compounds (0.19–100 µM) were prepared in separate plates, then transferred to the plates containing the adherent cell lines.
as §4

[4] = system: L5178Y mouse T-cell lymphoma cells; assay: MTT antiproliferative assay (72 h, 6 × 10^3 cells); type: cell-based; conditions: for IC50: Mus musculus
Description: as §1, §2, §3, §4

[5] = system: L5178YMDR cells (ABCB1-expressing); assay: MTT antiproliferative assay (72 h, 6 × 10^3 cells); type: cell-based; conditions: Mus musculus, 72 h MTT, n = 3, read-out: Antiproliferative Effect (IC50 ± SD)
Description: as §1, §2, §3, §4

[6] = system: MRC-5 human embryonal lung fibroblasts; assay: MTT antiproliferative assay (72 h); type: cell-based
Description: as §1, §5, §6, §4

[7] = target: T1, ABCB1 (Homo sapiens, UniProt P08183); assay: ABCB1 inhibition assay (rhodamine 123 accumulation, flow cytometry); type: cell-based; conditions: human, probe rhodamine 123 (5.2 µM), L5178YMDR, rhodamine 123 accumulation, n = 1
T1 construct: expressed in transfected cells; host or cells: L5178Y mouse T-cell lymphoma cells transfected with pHa MDR1/A retrovirus, selected with colchicine (L5178YMDR)
Description: (§7) ABCB1 inhibition was determined by the intracellular accumulation of rhodamin 123 as reported before. Briefly, 2 × 10^6 cells/mL of L5178Y and L5178YMDR cell lines were re-suspended in serum-free McCoy’s 5A medium and distributed in 0.5 mL aliquots into Eppendorf centrifuge tubes. The compounds were added at a final concentration of 2 or 20 μM and the samples were incubated for 10 min at room temperature. Tariquidar was used as positive control and DMSO as negative control; for the latter, no activity was observed. Subsequently, 10 μL (5.2 μM final concentration) of the ABCB1 substrate fluorescent dye rhodamine 123 was added and the cells were incubated further for 20 min at 37 °C, washed twice and re-suspended in 1 mL PBS for analysis. Fluorescence of the cell population was measured with a PartecCyFlow® flow cytometer (Partec, Münster, Germany). Mean fluorescence intensity percentage was calculated for the treated vs. untreated L5178YMDR cells. Inhibition percentage for the treated cells was calculated from the corresponding values of the untreated L5178Y and L5178YMDR cells, representing 100% and 0% inhibition, respectively.

[8] = target: T2, ABCB1 transporter (Homo sapiens, UniProt P08183); assay: as above; type: cell-based; conditions: L5178YMDR, 2 or 20 µM
T2 construct: expressed in transfected cells; host or cells: L5178Y mouse T-cell lymphoma cells transfected with pHa MDR1/A retrovirus, selected with colchicine (L5178YMDR)
Description: as §7

[9] = system: L5178YMDR cells; assay: Combination assay with doxorubicin (checkerboard microplate method, MTT); type: cell-based, mouse; set-up: Dm (antilog of the x-intercept of the median-effect plot): unit not given here; conditions: for CIavg (weighted average CI): (CI50 + 2CI75 + 3CI90)/6
Description: Compounds 7, 10, 11, 13, and 14 had sufficient individual antiproliferative properties for their assessment of chemo-sensitizing activity. This was carried out as an antiproliferative assay on L5178YMDR cells in combination with doxorubicin, arranged according to the checkerboard microplate method.
The checkerboard microplate method was used to evaluate the compounds’ interaction with doxorubicin, as described before. Briefly, doxorubicin (2 mg/mL, Teva Pharmaceuticals, Budapest, Hungary) was serially diluted in the horizontal direction (100 µL per well), and the ecdysteroid was subsequently diluted in the vertical direction (50 µL per well). L5178YMDR cells were re-suspended in culture medium and added to each test well in 50 µL to contain 1 × 10^4 cells per well, and 50 µL of medium was added to the medium control wells. The plates were incubated for 72 h at 37 °C in a CO2 incubator and, at the end of the incubation period, the cell growth was determined by MTT assay as described above. Cell viability data were analyzed by the Calcusyn software using the Chou method, and drug interactions were expressed as combination index (CI) values, in which 0 < CI < 1, CI = 1, and CI > 1 refer to synergism, additivity, and antagonism, respectively.

[10] = drug ratio 23.2:1, with doxorubicin
[11] = drug ratio 46.4:1, with doxorubicin
[12] = drug ratio 92.8:1, with doxorubicin
[13] = drug ratio 185.6:1, with doxorubicin

## CC(=O)N[C@H]1CC=C2C3=CC(=O)[C@@H]4C[C@H]5OC(C)(C)O[C@H]5C[C@]4(C)[C@H]3CC[C@@]21C [Compound 13]
[1]
  IC50: > 100 µM
[2]
  IC50: > 100 µM
[3]
  IC50 at 24 h: 35 ± 3.2 µM
[4]; L5178Y, 72 h MTT, n = 3, read-out: Antiproliferative Effect (IC50 ± SD)
  IC50: 4.6 ± 0.8 µM
[4]; text summary for both lymphoma cell lines (L5178Y and L5178YMDR), read-out: antiproliferative activity on the lymphoma cell lines (IC50)
  IC50: ~4.7 µM
[4]; lymphoma cell lines, ratio of cytotoxic to antiproliferative IC50
  antiproliferative activity stronger than cytotoxicity: over 20 times
[5]
  IC50: 4.8 ± 0.6 µM
[6]; Homo sapiens, MRC5, MRC-5, 72 h MTT, n = 3, read-out: Antiproliferative Effect (IC50 ± SD)
  IC50: 12 ± 1.9 µM
[6]; tumor cell lines vs MRC-5
  selective antiproliferative activity against both tumor cell lines: ca. 2.5 times
[7]; 2 µM
  inhibition at 20 min, 2 µM: 0.09%
[7]; 20 µM
  inhibition at 20 min, 20 µM: -0.01%
[8]
  direct ABCB1 / efflux pump inhibition, in words: inactive
[9]; checkerboard, 72 h
  interaction with doxorubicin, in words: relevant synergism with doxorubicin already at 50% inhibition
[9]; [10]
  CI at ED75: 0.55
  CI at ED90: 0.49
  Dm (antilog of the x-intercept of the median-effect plot): 8.17
  CIavg (weighted average CI): 0.53
[9]; [11]
  CI at ED75: 0.51
  CI at ED90: 0.39
  Dm (antilog of the x-intercept of the median-effect plot): 14.17
  CIavg (weighted average CI): 0.48
[9]; [12]
  CI at ED75: 0.51
  CI at ED90: 0.47
  Dm (antilog of the x-intercept of the median-effect plot): 17.54
  CIavg (weighted average CI): 0.50
[9]; [13]
  CI at ED75: 0.68
  CI at ED90: 0.65
  Dm (antilog of the x-intercept of the median-effect plot): 29.89
  CIavg (weighted average CI): 0.67
